Consider 21 compounds from patent publication US20100331298A1, “Carboxamide Compounds and Their Use” (CytoPathfinder, Inc., priority 2007, published 2010).

Where a name gives a salt, the structure may show the parent alone.

The target in the assay is T1, CCR2b (Homo sapiens, UniProt P41597).
T1 construct: host or cells: AequoScreen CCR2b cells
T1 sequence (P41597 1-360 isoform P41597-2): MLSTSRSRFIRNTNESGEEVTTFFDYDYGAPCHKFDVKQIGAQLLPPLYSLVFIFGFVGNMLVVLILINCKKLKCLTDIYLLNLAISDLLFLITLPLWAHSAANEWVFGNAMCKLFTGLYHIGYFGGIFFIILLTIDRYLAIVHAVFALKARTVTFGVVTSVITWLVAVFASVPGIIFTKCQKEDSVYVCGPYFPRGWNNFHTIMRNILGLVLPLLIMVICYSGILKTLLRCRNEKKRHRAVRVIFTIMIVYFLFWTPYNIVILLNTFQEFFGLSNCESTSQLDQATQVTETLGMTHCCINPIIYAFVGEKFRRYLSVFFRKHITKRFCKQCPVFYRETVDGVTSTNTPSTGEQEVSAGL
Briefly: AequoScreen assay, Ca++ flux (antagonist mode against reference agonist MCP-1). The following applies: AequoScreen CCR2b (FAST-060A) cells; inhibition of reference agonist MCP-1 at its EC80. It counts as cell-based. As to the method:
The biological activity of the compounds described herein can be evaluated using assays known in the art, such as the AequoScreen™ assay.
AequoScreen™ CCR2b (FAST-060A) cells grown to mid-log phase in culture media without antibiotics are detached with PBS-EDTA, centrifuged and resuspended in assay buffer (DMEM/HAM's F12 with HEPES, without phenol red+0.1% BSA protease free) at a concentration of 1×10^6 cells/mL. Cells are incubated at room temperature for at least 4 hours with coelenterazine h. Dose response curves are performed before testing. The reference agonist is MCP-1.
For agonist testing, 50 μL of cell suspension is mixed with 50 μL of test compound in a 96-well plate. The resulting emission of light is recorded using a Hamamatsu Functional Drug Screening System 6000 (FDSS 6000).
Following an incubation of 15 minutes after the first injection, 100 μL of the resulting cell suspension containing the test compound is mixed with 100 μL of the reference agonist in the 96 well test plate. The resulting emission of light is recorded using the same luminometer as for agonist testing.
To standardize the emission of recorded light (determination of the “100% signal”) across plates and across different experiments, some of the wells contained 100 μM digitonin, a saturating concentration of ATP (20 μM) and a concentration of reference agonist equivalent to the EC50 obtained during test validation.
Agonist activity of a test compound can be expressed as a percentage of the activity of the reference agonist at its EC100 concentration. Antagonist activity of a test compound can be expressed as a percentage of the inhibition of reference agonist activity at its EC80) concentration.
For orientation: IC50 means the midpoint of a concentration-inhibition curve. Read a high IC50 as a need for much substance. As to `O=C(NCc1cc(C(F)(F)F)cc(C(F)(F)F)c1)C1(CC2CC2)CCN(Cc2ccc3[nH]ncc3c2)C1` (stereo not drawn) [Example 21, 1-((1H-Indazol-5-yl)methyl)-N-(3,5-bis(trifluoromethyl)benzyl)-3-(cyclopro-pylmethyl)pyrrolidine-3-carboxamide dihydrochloride], the IC50 was < 0.2 µM.
Then `Cn1c(=O)ccc2ccc(CN3CCC(CC4CC4)(C(=O)NCc4cc(C(F)(F)F)cc(C(F)(F)F)c4)C3)cc21` (stereo not drawn) [Example 20, N-(3,5-Bis(trifluoromethyl)benzyl)-3-(cyclopropylmethyl)-1-((1-methyl-2-oxo-1,2-dihydroquinolin-7-yl)methyl)pyrrolidine-3-carboxamide], with < 0.2 µM.
Consider `O=C(NCc1cc(C(F)(F)F)cc(C(F)(F)F)c1)C1(CC2CC2)CCN(Cc2ccc3nc[nH]c3c2)CC1` [Example 19, 1-((1H-Benzo[d]imidazol-6-yl)methyl)-N-(3,5-bis(trifluoromethyl)benzyl)-4-(cyclopropylmethyl)piperidine-4-carboxamide], for which the IC50 was > 1 µM.
The result for `O=C1COc2ccc(C(O)CN3CCC(CC4CC4)(C(=O)NCc4cc(C(F)(F)F)cc(C(F)(F)F)c4)CC3)cc2N1` (stereo not drawn) [Example 5, N-(3,5-Bis(trifluoromethyl)benzyl)-4-(cyclopropylmethyl)-1-(2-hydroxy-2-(3-oxo-3,4-dihydro-2H-benzo[b][1,4]oxazin-6-yl)ethyl)piperidine-4-carboxamide] reads > 1 µM; that for `COCC1(C(=O)N2CC(c3cc(C(F)(F)F)ccn3)C2)CCN(Cc2ccc3oc(=O)n(C)c3c2)C1` (stereo not drawn) [Example 28, 5-((3-(Methoxymethyl)-3-(3-(4-(trifluoromethyl)pyridin-2-yl)azetidine-1-carbonyl)pyrrolidin-1-yl)methyl)-3-methylbenzo[d]oxazol-2(3H)-one], 0.2 to 1 µM; that for `O=C(NCc1cc(C(F)(F)F)cc(C(F)(F)F)c1)C1(CC2CC2)CCN(Cc2ccc3ccc(=O)[nH]c3c2)CC1` [Example 11, N-(3,5-Bis(trifluoromethyl)benzyl)-4-(cyclopropylmethyl)-1-((2-oxo-1,2-dihydroquinolin-7-yl)methyl)piperidine-4-carboxamide], > 1 µM.
In the case of `O=C(NCc1cc(C(F)(F)F)cc(C(F)(F)F)c1)C1(CC2CC2)CCN(Cc2cccc3c(=O)[nH]ccc23)CC1` [Example 9, N-(3,5-Bis(trifluoromethyl)benzyl)-4-(cyclopropylmethyl)-1-((1-oxo-1,2-dihydroisoquinolin-5-yl)methyl)piperidine-4-carboxamide], the 50% inhibitory concentration (IC50) lay within 0.2 to 1 µM.
The result for `CC(C)CC1(C(=O)NCc2cc(C(F)(F)F)cc(C(F)(F)F)c2)CCN(Cc2ccc3c(c2)OCCN3C)CC1` [Example 17, N-(3,5-Bis(trifluoromethyl)benzyl)-4-isobutyl-1-((4-methyl-3,4-dihydro-2H-benzo[b][1,4]oxazin-7-yl)methyl)piperidine-4-carboxamide] reads > 1 µM; that for `Cn1c(=O)oc2ccc(CN3CCC(CC4CC4)(C(=O)NCc4cc(C(F)(F)F)cc(C(F)(F)F)c4)CC3)cc21` [Example 26, N-(3,5-Bis(trifluoromethyl)benzyl)-4-(cyclopropylmethyl)-1-((3-methyl-2-oxo-2,3-dihydrobenzo[d]oxazol-5-yl)methyl)piperidine-4-carboxamide], 0.2 to 1 µM.
Then `Cn1c(=O)oc2ccc(CN3CCC(CC4CC4)(C(=O)NCc4cc(C#N)cc(C(F)(F)F)c4)C3)cc21` (stereo not drawn) [Example 24, N-(3-Cyano-5-(trifluoromethyl)benzyl)-3-(cyclopropylmethyl)-1-((3-methyl-2-oxo-2,3-dihydrobenzo[d]oxazol-5-yl)methyl)pyrrolidine-3-carboxamide HCl salt], with < 0.2 µM; and `Cn1c(=O)ccc2ccc(CN3CCC(CC4CC4)(C(=O)NCc4cc(C#N)cc(C(F)(F)F)c4)C3)cc21` (stereo not drawn) [Example 23, N-(3-Cyano-5-(trifluoromethyl)benzyl)-3-(cyclopropylmethyl)-1-((1-methyl-2-oxo-1,2-dihydroquinolin-7-yl)methyl)pyrrolidine-3-carboxamide TFA salt], with < 0.2 µM.
The result for `CC(C)CC1(C(=O)NCc2cc(C(F)(F)F)cc(C(F)(F)F)c2)CCN(Cc2ccc3c(c2)nnn3C)CC1` [Example 18, N-(3,5-Bis(trifluoromethyl)benzyl)-4-isobutyl-1-((1-methyl-1H-benzo[d][1,2,3]triazol-5-yl)methyl)piperidine-4-carboxamide] reads > 1 µM; that for `O=C1COc2ccc(CN3CCC(CC4CC4)(C(=O)NCc4cc(C(F)(F)F)cc(C(F)(F)F)c4)C3)cc2N1` (stereo not drawn) [Example 22, N-(3,5-Bis(trifluoromethyl)benzyl)-3-(cyclopropylmethyl)-1-((3-oxo-3,4-dihydro-2H-benzo[b][1,4]oxazin-6-yl)methyl)pyrrolidine-3-carboxamide], 0.2 to 1 µM; that for `Cn1c(=O)ccc2ccc(CN3CCC(C(=O)NCc4cc(C(F)(F)F)cc(C(F)(F)F)c4)(C4CC4)CC3)cc21` [Example 3, N-(3,5-Bis(trifluoromethyl)benzyl)-4-cyclopropyl-1-((1-methyl-2-oxo-1,2-dihydroquinolin-7-yl)methyl)piperidine-4-carboxamide], > 1 µM.
In the case of “N-(3,5-Bis(trifluoromethyl)benzyl)-4-(cyclopropylmethyl)-1-((3-methyl-2-oxo-2,3-dihydrobenzo[d]thiazol-6-yl)methyl)piperidine-4-carboxamide TFA salt [Example 25]”, the IC50 is < 0.2 µM.
Then `CN1C(=O)COc2ccc(CN3CCC(CC4CC4)(C(=O)NCc4cc(C(F)(F)F)cc(C(F)(F)F)c4)CC3)cc21` [Example 27, N-(3,5-Bis(trifluoromethyl)benzyl)-4-(cyclopropylmethyl)-1-((4-methyl-3-oxo-3,4-dihydro-2H-benzo[b][1,4]oxazin-6-yl)methyl)piperidine-4-carboxamide], with 0.2 to 1 µM; and `COCC1(C(=O)N2CCN(c3cc(C(F)(F)F)ccn3)CC2)CCN(Cc2ccc3oc(=O)n(C)c3c2)C1` (stereo not drawn) [Example 29, 5-((3-(Methoxymethyl)-3-(4-(4-(trifluoromethyl)pyridin-2-yl)piperazine-1-carbonyl)pyrrolidin-1-yl)methyl)-3-methylbenzo[d]oxazol-2(3H)-one], with 0.2 to 1 µM; and `O=C1COc2ccc(CCN3CCC(CC4CC4)(C(=O)NCc4cc(C(F)(F)F)cc(C(F)(F)F)c4)CC3)cc2N1` [Example 10, N-(3,5-Bis(trifluoromethyl)benzyl)-4-(cyclopropylmethyl)-1-(2-(3-oxo-3,4-dihydro-2H-benzo[b][1,4]oxazin-6-yl)ethyl)piperidine-4-carboxamide], with > 1 µM.
Then `O=C1COc2ccc(CN3CCC(CC4CC4)(C(=O)NCc4cc(C(F)(F)F)cc(C(F)(F)F)c4)CC3)cc2N1` [Example 6, N-(3,5-Bis(trifluoromethyl)benzyl)-4-(cyclopropylmethyl)-1-((3-oxo-3,4-dihydro-2H-benzo[b][1,4]oxazin-6-yl)methyl)piperidine-4-carboxamide], with > 1 µM; and `O=C(NCc1cc(C(F)(F)F)cc(C(F)(F)F)c1)C1(CC2CC2)CCN(Cc2ccc3cc[nH]c(=O)c3c2)CC1` [Example 8, N-(3,5-Bis(trifluoromethyl)benzyl)-4-(cyclopropylmethyl)-1-((1-oxo-1,2-dihydroisoquinolin-7-yl)methyl)piperidine-4-carboxamide], with > 1 µM.
Then `Cn1c(=O)ccc2ccc(CN3CCC(CC4CC4)(C(=O)NCc4cc(C(F)(F)F)cc(C(F)(F)F)c4)CC3)cc21` [Example 1, N-(3,5-Bis(trifluoromethyl)benzyl)-4-(cyclopropylmethyl)-1-((1-methyl-2-oxo-1,2-dihydroquinolin-7-yl)methyl)piperidine-4-carboxamide], with < 0.2 µM.
